Patent US20220331353A1, “SYNERGISTIC COMPOSITIONS AND METHODS TO INCREASE VASCULAR NITRIC OXIDE TO TREAT ENDOTHELIAL DYSFUNCTION AND RELATED CONDITIONS” (Calroy Health Sciences, LLC, priority 2021, published 2022)

Assay: Transdermal hydrogen sulfide on forearm after N-acetyl cysteine, Interscan Halimeter PLUS
Format: in vivo, human
Settings: 600 mg oral; for Transdermal Hydrogen Sulfide H2S: adult male, forearm
Procedure: We hypothesized that formula 2 sustained a higher level of bioavailable NO than formula 1 because N-acetyl cysteine generates hydrogen sulfide in the body. To test this hypothesis, we measured transdermal hydrogen sulfide on the surface of the forearm after an adult subject ingested 600 mg of N-acetyl cysteine. The test was performed using Interscan Halimeter® PLUS with a simple modification of sample collection method. Hydrogen sulfide, the primary volatile sulfur compounds detectable by the device, was measured in triplicate for 6 hours after dosing with N-acetyl cysteine (Table IV). […] The data support a mechanism wherein N-acetyl cysteine increases hydrogen sulfide production that boosts NO availability and activity in the body.

CC(=O)N[C@@H](CS)C(=O)O [N-acetyl cysteine]
Transdermal Hydrogen Sulfide H2S (0 h): 16 ppb | Transdermal Hydrogen Sulfide H2S (2 h): 27 ppb | Transdermal Hydrogen Sulfide H2S (3 h): 46 ppb | Transdermal Hydrogen Sulfide H2S (4 h): 51 ppb | Transdermal Hydrogen Sulfide H2S (5 h): 40 ppb | Transdermal Hydrogen Sulfide H2S (6 h): 16 ppb | transdermal hydrogen sulfide (peak at 4 hours): 51 ppb | transdermal hydrogen sulfide (starting value): 16 ppb | transdermal hydrogen sulfide (within 2 hours): 27 ppb
